Source: patent publication US20140206681A1, “BTK INHIBITORS” (priority 2013, published 2014)

What was measured:
[1] = target: T1, BTK enzyme (recombinant full-length BTK, hBTK) (Homo sapiens, UniProt Q06187); assay: BTK enzyme activity assay, LANCE TR-FRET; format: biochemical; settings: 50 pM hBTK, 2 μM biotin-A5-peptide, 25 μM ATP; 60 min compound & enzyme incubation; read-out: IC50 BTK activity value
T1 construct: recombinant protein from baculovirus-transfected Sf9 cells: full-length BTK, 6HIS-tag cleaved; 6HIS (cleaved yes); made in house; host or cells: baculovirus-transfected Sf9 cells

HeLa cells = assay: [3H]Adenosine uptake functional cellular assay; format: cell-based; settings: Homo sapiens, HeLa, accumulation of [3H]adenosine into HeLa cells; compound range 10 μM to […]; read-out: Adenosine uptake inhibition IC50
Procedure, shortened: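 Inhibition of adenosine uptake was measured in HeLa cells (ATCC CCL-2) by following accumulation of tritiated adenosine. Cells were kept overnight at 37° C. with 5% (v/v) CO2, then switched to 40 μL HBSS plus 5% (v/v) FBS. 20 μL of 500 nM [3H]adenosine was added, and uptake was counted on a Topcount NXT reader.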

T1 sequence (Q06187 whole entry): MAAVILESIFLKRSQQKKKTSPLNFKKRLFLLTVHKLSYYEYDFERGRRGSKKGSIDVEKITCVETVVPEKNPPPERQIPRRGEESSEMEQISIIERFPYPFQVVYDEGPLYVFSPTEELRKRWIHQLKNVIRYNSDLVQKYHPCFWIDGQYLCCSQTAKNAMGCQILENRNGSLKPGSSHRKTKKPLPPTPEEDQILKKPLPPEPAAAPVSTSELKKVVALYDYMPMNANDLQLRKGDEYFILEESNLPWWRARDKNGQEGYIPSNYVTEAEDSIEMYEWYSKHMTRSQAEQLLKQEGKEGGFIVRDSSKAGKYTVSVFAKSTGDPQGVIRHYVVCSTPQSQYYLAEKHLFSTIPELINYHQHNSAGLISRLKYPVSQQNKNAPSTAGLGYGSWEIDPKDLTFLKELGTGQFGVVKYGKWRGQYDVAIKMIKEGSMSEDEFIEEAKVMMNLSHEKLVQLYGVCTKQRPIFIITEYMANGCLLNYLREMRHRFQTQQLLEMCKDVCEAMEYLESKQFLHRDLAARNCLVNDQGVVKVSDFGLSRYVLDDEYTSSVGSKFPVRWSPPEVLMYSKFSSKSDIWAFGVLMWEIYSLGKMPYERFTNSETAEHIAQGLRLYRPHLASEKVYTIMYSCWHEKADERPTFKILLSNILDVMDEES

| SMILES | IC50 [1] [nM] | IC50 (HeLa cells) [nM] |
| --- | --- | --- |
| CC(=O)Nc1nccn2c([C@@H]3CC[C@H]4CCC(=O)N4C3)nc(-c3ccc(C(=O)Nc4cc(C(F)(F)F)ccn4)cc3O)c12 [Example 156, 4-{8-(acetylamino)-3-[(6R,8aS)-3-oxooctahydroindolizin-6-yl]imidazo[1,5-a]pyrazin-1-yl}-3-hydroxy-N-[4-(trifluoromethyl)pyridin-2-yl]benzamide] | 4.4 | 1750 |
| COCCN(C(=O)c1ccc(-c2nc([C@@H]3CC[C@H]4CCC(=O)N4C3)n3ccnc(N)c23)c(O)c1)c1cc(C(F)(F)F)ccn1 [Example 157, 4-{8-amino-3-[(6R,8aS)-3-oxooctahydroindolizin-6-yl]imidazo[1,5-a]pyrazin-1-yl}-3-hydroxy-N-(2-methoxyethyl)-N-[4-(trifluoromethyl)pyridin-2-yl]benzamide] | 292 | 1780 |
| CCOc1cc(C(=O)Nc2ncc(C)s2)ccc1-c1nc([C@@H]2CC[C@H]3CCC(=O)N3C2)n2c(Cl)cnc(N)c12 [Example 158, 4-{8-amino-5-chloro-3-[(6R,8aS)-3-oxooctahydroindolizin-6-yl]imidazo[1,5-a]pyrazin-1-yl}-3-ethoxy-N-(5-methyl-1,3-thiazol-2-yl)benzamide] | 0.45 | 2070 |
| CCOc1cc(C(=O)Nc2cc(C(F)(F)F)ccn2)ccc1-c1nc([C@@H]2CC[C@H]3CCC(=O)N3C2)n2c(F)cnc(N)c12 [Example 161, 4-{8-amino-5-fluoro-3-[(6R,8aS)-3-oxooctahydroindolizin-6-yl]imidazo[1,5-a]pyrazin-1-yl}-3-ethoxy-N-[4-(trifluoromethyl)pyridin-2-yl]benzamide] | 0.99 | 1540 |
| CCOc1cc(C(=O)Nc2ncc(C)s2)ccc1-c1nc([C@@H]2CC[C@H]3CCC(=O)N3C2)n2c(F)cnc(N)c12 [Example 164, 4-{8-amino-5-fluoro-3-[(6R,8aS)-3-oxooctahydroindolizin-6-yl]imidazo[1,5-a]pyrazin-1-yl}-3-ethoxy-N-(5-methyl-1,3-thiazol-2-yl)benzamide] | 1.9 | 817 |
| Nc1ncc(F)n2c([C@@H]3CC[C@H]4CCC(=O)N4C3)nc(-c3ccc(C(=O)Nc4cc(C(F)(F)F)ccn4)cc3O)c12 [Example 165, 4-{8-amino-5-fluoro-3-[(6R,8aS)-3-oxooctahydroindolizin-6-yl]imidazo[1,5-a]pyrazin-1-yl}-3-hydroxy-N-[4-(trifluoromethyl)pyridin-2-yl]benzamide] | 2.3 | 1540 |
| Nc1ncc(F)n2c([C@@H]3CC[C@H]4CCC(=O)N4C3)nc(-c3ccc(C(=O)Nc4cc(C5CC5)ccn4)cc3F)c12 [Example 167, 4-{8-amino-5-fluoro-3-[(6R,8aS)-3-oxooctahydroindolizin-6-yl]imidazo[1,5-a]pyrazin-1-yl}-N-(4-cyclopropylpyridin-2-yl)-3-fluorobenzamide] | 1.3 | 318 |
| Nc1nccn2c([C@@H]3CC[C@H]4CCC(=O)N4C3)nc(-c3ccc(C(=O)Nc4cc(C(F)(F)F)[nH]n4)cc3)c12 [Example 170, 4-(8-amino-3-((6R,8aS)-3-oxooctahydroindolizin-6-yl)imidazo[1,5-a]pyrazin-1-yl)-N-(5-(trifluoromethyl)-1H-pyrazol-3-yl)benzamide] | 36.9 | 6750 |
| Cc1nsc(NC(=O)c2ccc(-c3nc([C@@H]4CC[C@H]5CCC(=O)N5C4)n4ccnc(N)c34)cc2)n1 [Example 176, 4-{8-amino-3-[(6R,8aS)-3-oxooctahydroindolizin-6-yl]imidazo[1,5-a]pyrazin-1-yl}-N-(3-methyl-1,2,4-thiadiazol-5-yl)benzamide] | 14.9 | 7810 |

Next, values leading:

| IC50 [1] [nM] | IC50 (HeLa cells) [nM] | SMILES |
| --- | --- | --- |
| 0.63 | 1220 | CCOc1cc(C(=O)Nc2ncc(C)s2)ccc1-c1nc([C@@H]2CC[C@H]3CCC(=O)N3C2)n2ccnc(N)c12 [Example 159, 4-{8-amino-3-[(6R,8aS)-3-oxooctahydroindolizin-6-yl]imidazo[1,5-a]pyrazin-1-yl}-3-ethoxy-N-(5-methyl-1,3-thiazol-2-yl)benzamide] |
| 0.28 | 290 | Nc1ncc(F)n2c([C@@H]3CC[C@H]4CCC(=O)N4C3)nc(-c3ccc(C(=O)Nc4cc(C(F)(F)F)ccn4)cc3)c12 [Example 160, 4-{8-amino-5-fluoro-3-[(6R,8aS)-3-oxooctahydroindolizin-6-yl]imidazo[1,5-a]pyrazin-1-yl}-N-[4-(trifluoromethyl)pyridin-2-yl]benzamide] |
| 1.3 | 1540 | COc1cc(C(=O)Nc2cc(C(F)(F)F)ccn2)ccc1-c1nc([C@@H]2CC[C@H]3CCC(=O)N3C2)n2c(F)cnc(N)c12 [Example 162, 4-{8-amino-5-fluoro-3-[(6R,8aS)-3-oxooctahydroindolizin-6-yl]imidazo[1,5-a]pyrazin-1-yl}-3-methoxy-N-[4-(trifluoromethyl)pyridin-2-yl]benzamide] |
| 3.1 | 2410 | CCOc1cc(C(=O)Nc2cc(C(F)(F)F)n(C)n2)ccc1-c1nc([C@@H]2CC[C@H]3CCC(=O)N3C2)n2c(F)cnc(N)c12 [Example 163, 4-{8-amino-5-fluoro-3-[(6R,8aS)-3-oxooctahydroindolizin-6-yl]imidazo[1,5-a]pyrazin-1-yl}-3-ethoxy-N-[1-methyl-5-(trifluoromethyl)-1H-pyrazol-3-yl]benzamide] |
| 0.34 | 296 | Nc1ncc(F)n2c([C@@H]3CC[C@H]4CCC(=O)N4C3)nc(-c3ccc(C(=O)Nc4cc(C(F)(F)F)ccn4)cc3F)c12 [Example 166, 4-{8-amino-5-fluoro-3-[(6R,8aS)-3-oxooctahydroindolizin-6-yl]imidazo[1,5-a]pyrazin-1-yl}-3-fluoro-N-[4-(trifluoromethyl)pyridin-2-yl]benzamide] |
| 1.5 | 285 | Nc1ncc(F)n2c([C@@H]3CC[C@H]4CCC(=O)N4C3)nc(-c3ccc(C(=O)Nc4cc(C5CC5)ccn4)cc3)c12 [Example 168, 4-{8-amino-5-fluoro-3-[(6R,8aS)-3-oxooctahydroindolizin-6-yl]imidazo[1,5-a]pyrazin-1-yl}-N-(4-cyclopropylpyridin-2-yl)benzamide] |
| 3.7 | 2950 | CCOc1cc(C(=O)Nc2cc(C(F)(F)F)ccn2)c(F)cc1-c1nc([C@@H]2CC[C@H]3CCC(=O)N3C2)n2c(F)cnc(N)c12 [Example 169, 4-{8-amino-5-fluoro-3-[(6R,8aS)-3-oxooctahydroindolizin-6-yl]imidazo[1,5-a]pyrazin-1-yl}-5-ethoxy-2-fluoro-N-[4-(trifluoromethyl)pyridin-2-yl]benzamide] |
| 6.5 | 725 | Cc1cc(NC(=O)c2ccc(-c3nc([C@@H]4CC[C@H]5CCC(=O)N5C4)n4ccnc(N)c34)cc2)nn1C [Example 175, 4-{8-amino-3-[(6R,8aS)-3-oxooctahydroindolizin-6-yl]imidazo[1,5-a]pyrazin-1-yl}-N-(1,5-dimethyl-1H-pyrazol-3-yl)benzamide] |
| 144 | 3320 | Nc1nccn2c([C@@H]3CC[C@H]4CCC(=O)N4C3)nc(-c3ccc(C(=O)Nc4nc(C(F)(F)F)c[nH]4)cc3)c12 [Example 177, 4-{8-amino-3-[(6R,8aS)-3-oxooctahydroindolizin-6-yl]imidazo[1,5-a]pyrazin-1-yl}-N-[4-(trifluoromethyl)-1H-imidazol-2-yl]benzamide] |
